From the NIST ThermoML archive (doi:10.1021/je200811n)
± gives the expanded uncertainty stated by the source.

Details: Hot wire method

F/C=C/C(F)(F)F [trans-1,3,3,3-tetrafluoropropene]
Details	thermal conductivity [W/m/K]
312.25 K, 581 kPa, Gas	0.01478 ± 0.0005
312.31 K, 325 kPa, Gas	0.01497 ± 0.0005
312.4 K, 200 kPa, Gas	0.01456 ± 0.00049
312.41 K, 431 kPa, Gas	0.01481 ± 0.0005
312.43 K, 101 kPa, Gas	0.0144 ± 0.0005
312.48 K, 326 kPa, Gas	0.01471 ± 0.0005
312.57 K, 582 kPa, Gas	0.01477 ± 0.0005
312.62 K, 200 kPa, Gas	0.0149 ± 0.0005
312.73 K, 430 kPa, Gas	0.01467 ± 0.0005
312.8 K, 102 kPa, Gas	0.01504 ± 0.00051
312.83 K, 325 kPa, Gas	0.01474 ± 0.0005
312.92 K, 584 kPa, Gas	0.01483 ± 0.0005
312.98 K, 200 kPa, Gas	0.01488 ± 0.0005
313.1 K, 428 kPa, Gas	0.01481 ± 0.0005
313.2 K, 102 kPa, Gas	0.01509 ± 0.00051
313.2 K, 325 kPa, Gas	0.01472 ± 0.0005
313.27 K, 585 kPa, Gas	0.01483 ± 0.0005
313.39 K, 200 kPa, Gas	0.01487 ± 0.0005
313.49 K, 429 kPa, Gas	0.01476 ± 0.0005
313.6 K, 325 kPa, Gas	0.01477 ± 0.0005
313.64 K, 102 kPa, Gas	0.01508 ± 0.00051
313.67 K, 586 kPa, Gas	0.01487 ± 0.0005
313.81 K, 200 kPa, Gas	0.01496 ± 0.0005
313.88 K, 428 kPa, Gas	0.01479 ± 0.0005
314.02 K, 325 kPa, Gas	0.01482 ± 0.0005
314.08 K, 101 kPa, Gas	0.01511 ± 0.00051
314.25 K, 200 kPa, Gas	0.01496 ± 0.0005
314.56 K, 101 kPa, Gas	0.01518 ± 0.00051
320.95 K, 10241 kPa, Liquid	0.07419 ± 0.00082
320.95 K, 15330 kPa, Liquid	0.07758 ± 0.00086
321 K, 1074 kPa, Liquid	0.06717 ± 0.00076
321 K, 15328 kPa, Liquid	0.07747 ± 0.00086
321 K, 15398 kPa, Liquid	0.07709 ± 0.00085
321 K, 21637 kPa, Liquid	0.08122 ± 0.00089
321.01 K, 5363 kPa, Liquid	0.07064 ± 0.00079
321.01 K, 10238 kPa, Liquid	0.07408 ± 0.00082
321.06 K, 1073 kPa, Liquid	0.06692 ± 0.00075
321.06 K, 15400 kPa, Liquid	0.07715 ± 0.00085
321.06 K, 21630 kPa, Liquid	0.08106 ± 0.00089
321.08 K, 5360 kPa, Liquid	0.07051 ± 0.00078
321.23 K, 96 kPa, Gas	0.01565 ± 0.00053
321.24 K, 193 kPa, Gas	0.01579 ± 0.00053
321.26 K, 302 kPa, Gas	0.01598 ± 0.00054
321.31 K, 15324 kPa, Liquid	0.07738 ± 0.00087
321.32 K, 10235 kPa, Liquid	0.07406 ± 0.00083
321.34 K, 21627 kPa, Liquid	0.08112 ± 0.00089
321.35 K, 1071 kPa, Liquid	0.06648 ± 0.00075
321.36 K, 15404 kPa, Liquid	0.0766 ± 0.00088
321.37 K, 5451 kPa, Liquid	0.07074 ± 0.00079
321.39 K, 15326 kPa, Liquid	0.07727 ± 0.00086
321.4 K, 5358 kPa, Liquid	0.07043 ± 0.00078
321.42 K, 10233 kPa, Liquid	0.07383 ± 0.00082
321.43 K, 1070 kPa, Liquid	0.06675 ± 0.00075
321.43 K, 21621 kPa, Liquid	0.08087 ± 0.00089
321.44 K, 5449 kPa, Liquid	0.07064 ± 0.00079
321.45 K, 96 kPa, Gas	0.01549 ± 0.00052
321.45 K, 15400 kPa, Liquid	0.07716 ± 0.00085
321.46 K, 193 kPa, Gas	0.01564 ± 0.00053
321.48 K, 301 kPa, Gas	0.01576 ± 0.00053
321.5 K, 5355 kPa, Liquid	0.07013 ± 0.00078
321.69 K, 96 kPa, Gas	0.01537 ± 0.00052
321.69 K, 193 kPa, Gas	0.01553 ± 0.00052
321.69 K, 301 kPa, Gas	0.01571 ± 0.00053
321.73 K, 15326 kPa, Liquid	0.07718 ± 0.00085
321.74 K, 21616 kPa, Liquid	0.08084 ± 0.00089
321.76 K, 10233 kPa, Liquid	0.07335 ± 0.00081
321.77 K, 1068 kPa, Liquid	0.06659 ± 0.00075
321.77 K, 5449 kPa, Liquid	0.07051 ± 0.00078
321.77 K, 15389 kPa, Liquid	0.07714 ± 0.00086
321.85 K, 15325 kPa, Liquid	0.077 ± 0.00086
321.85 K, 21616 kPa, Liquid	0.08065 ± 0.00089
321.86 K, 5352 kPa, Liquid	0.07024 ± 0.00078
321.87 K, 1067 kPa, Liquid	0.06647 ± 0.00074
321.87 K, 5446 kPa, Liquid	0.07039 ± 0.00078
321.88 K, 10232 kPa, Liquid	0.07374 ± 0.00082
321.89 K, 15379 kPa, Liquid	0.07673 ± 0.00085
321.93 K, 96 kPa, Gas	0.01526 ± 0.00051
321.93 K, 301 kPa, Gas	0.0156 ± 0.0005
321.94 K, 193 kPa, Gas	0.01541 ± 0.00052
321.94 K, 862 kPa, Gas	0.01585 ± 0.00053
321.98 K, 5353 kPa, Liquid	0.07002 ± 0.00078
322.01 K, 717 kPa, Gas	0.01564 ± 0.00053
322.18 K, 301 kPa, Gas	0.01554 ± 0.00052
322.19 K, 193 kPa, Gas	0.01534 ± 0.00052
322.19 K, 21613 kPa, Liquid	0.0806 ± 0.00089
322.2 K, 15324 kPa, Liquid	0.07701 ± 0.00087
322.23 K, 861 kPa, Gas	0.01583 ± 0.00053
322.24 K, 5447 kPa, Liquid	0.07031 ± 0.00078
322.25 K, 432 kPa, Gas	0.01554 ± 0.00052
322.25 K, 1068 kPa, Liquid	0.06595 ± 0.00074
322.25 K, 10235 kPa, Liquid	0.0737 ± 0.00082
322.25 K, 15372 kPa, Liquid	0.07646 ± 0.00086
322.27 K, 889 kPa, Gas	0.01589 ± 0.00053
322.32 K, 715 kPa, Gas	0.01567 ± 0.00053
322.32 K, 21607 kPa, Liquid	0.08044 ± 0.00089
322.34 K, 302 kPa, Gas	0.01575 ± 0.00053
322.34 K, 15322 kPa, Liquid	0.0768 ± 0.00086
322.35 K, 5442 kPa, Liquid	0.07009 ± 0.00078
322.37 K, 5357 kPa, Liquid	0.07003 ± 0.00078
322.38 K, 1067 kPa, Liquid	0.06625 ± 0.00074
322.4 K, 10234 kPa, Liquid	0.07347 ± 0.00082
322.48 K, 588 kPa, Gas	0.01563 ± 0.00053
322.52 K, 5368 kPa, Liquid	0.06983 ± 0.00078
322.55 K, 859 kPa, Gas	0.01582 ± 0.00053
322.57 K, 432 kPa, Gas	0.01556 ± 0.00052
322.58 K, 886 kPa, Gas	0.01586 ± 0.00053
322.65 K, 713 kPa, Gas	0.01571 ± 0.00053
322.69 K, 301 kPa, Gas	0.01554 ± 0.00052
322.7 K, 21605 kPa, Liquid	0.08035 ± 0.00089
322.73 K, 15322 kPa, Liquid	0.07671 ± 0.00085
322.75 K, 5443 kPa, Liquid	0.07003 ± 0.00079
322.79 K, 1065 kPa, Liquid	0.06618 ± 0.00074
322.8 K, 10233 kPa, Liquid	0.07327 ± 0.00081
322.81 K, 193 kPa, Gas	0.01577 ± 0.00053

Details	thermal conductivity [W/m/K]
313.15 K, Liquid	0.06932 ± 0.00048
